# Test results as given in patent US20240206469A1, “PHOSPHORUS USE EFFICIENCY ENHANCERS AS PLANT GROWTH PROMOTORS” (EUROCHEM ANTWERPEN, priority 2021, published 2024).
# Assays:
# [1] = system: SPX1 phosphate starvation biomarker; assay: Chemical activity assessment with Arabidopsis pSPX1::GUS reporter line (GUS stained area); format: in vivo, Arabidopsis thaliana
# Protocol: All Arabidopsis plant experiments were performed using the Arabidopsis thaliana Columbia-0 background. The Arabidopsis pSPX1::GUS line is described in the Plant Journal 2008, 54: 965-975. For rice, the cultivar Nipponbare was used. For maize, the cultivars DKC 2931 and B104 were used for regular pot experiments and sand-based pot experiments, respectively. For soybean, the cultivar Primus was used. […] The medium was solidified due to the addition of 0.6% Gelrite, unless stated otherwise. In case of vertical plates (root length and root hair measurements), the medium was supplied with 0.5% of sucrose and 1 μM (low phosphate, 1 μM KH2PO4, 9.9 mM KCl), 10 μM (low phosphate 10 μM KH2PO4, 9.9 mM KCl) or 1.25 mM KH2PO4 (high phosphate). Arabidopsis seeds were stratified for 2 days at 4° C. before germination. Seedlings were germinated in climate-controlled growth chambers at 22° C. under continuous light (100 μmol m^−2 s^−1). Husked rice seeds were germinated on wetted Whatman paper for 2 days at 37° C. and then transferred to Sterivent boxes or square Petri dishes with solid medium. Maize and soybean seeds were wetted 24 hours at room temperature prior to sowing in pots.
# For the chemical activity assessment 3 to 8 seeds per well of Arabidopsis pSPX1::GUS line were sown in 96-well plates containing 150 μl of low phosphate modMS liquid medium containing 1% of sucrose. Compounds were added in 50 μM concentration, starting from a 5 mM stock of compounds solved in DMSO. Different chemical substances were separately added to different wells. Per plate, 16 control wells were used, 8 containing only the low phosphate medium and 1% DMSO, and 8 containing high phosphate medium and 1% DMSO. 7 days after germination, plates were scanned using a flatbed scanner (EPSON Expression 11000XL) and analyzed for leaf size. After scanning, the growth medium was replaced by GUS staining solution (see Plant Mol. Biol. Rep. 1994, 12: 37-42 for details) and incubated for 1.5 hours at 37° C. The plates were scanned a second time and analyzed for GUS signal area. Measurements of both leaf area and GUS signal area were conducted by filtering out and measure the green and blue signal, respectively using ImageJ software. If the green leaf area was 50% or less than the control, samples were omitted. Additionally, all results were visually screened for leaf size and GUS signal.
# [2] = system: Maize DKC2931; assay: Long-term maize pot experiment, DKC2931 (PHENOVISION); format: in vivo, maize cultivar DKC 2931
# Protocol: Regular Arabidopsis, soybean and maize pot experiments used an unfertilized potting soil, which was supplemented at the start of the experiment with 50 ml H2O containing 0.25 g/l NH4NO3 and 0.44 g/l (high phosphate) or no (maize and soybean) or 0.11 g/l KH2PO (Arabidopsis) for low phosphate conditions. For the sand-based maize pot experiment, sand was supplemented with 50 ml H2O containing 0.25 g/l NH4NO3 and 0.38 g/l (high phosphate) or 0.02 g/l (low phosphate) KH2PO4. Potassium was balanced via addition of KCl. Compound concentration was 10 μM, calculated based on the total water content after watering, and was added at the start of the experiment (Arabidopsis) or once a week (maize). Indexed chlorophyll contents were received via a SPAD 502 Plus Chlorophyll Meter. All parameters in the sand experiment, except the rate of leaf 4 (measured the first 4 days after emergence), were measured 19 days after sowing. Measurements in the pot experiments with potting soil were done after 4 weeks of growth, except for leaf 5, which was measured at 26 days. One long-term maize pot experiment was conducted with the DKC 2931 (2.5 months) and B104 (3 months) cultivars on the PHENOVISION phenotyping platform as described in Frontiers in Plant Science 2021, 12: 640914, except that an unfertilized potting soil was used and that plants were fertilized with a low-phosphate Hoagland solution. The 2.5× overconcentrated low-phosphate Hoagland solution contained 0.034 g/l KH2PO and 200 mL of this solution was applied twice a week. 1.4 mL of a 10 mM compound solution was added each two weeks to each pot, corresponding to 9.6 mg/g nutrients. 13 plants per condition were used. During the experiment, pictures were taken twice a week for each plants from 6 different angles and the top. Pictures were used to extract the plant height and to extract the projected plant area from each side and calculate an estimated plant volume over time.
smiles,measurement,setting,value
"CC1CN(CC(=O)c2c(N)n(C)c(=O)n(C)c2=O)c2ccccc2O1 (stereo not shown) [Compound 8, 6-amino-1,3-dimethyl-5-[2-(2-methyl-2,3-dihydro-1,4-benzoxazin-4-yl)acetyl]pyrimidine-2,4-dione]",Suppression of the SPX1 biomarker (GUS staining),"[1]; 7 days of growth in low phosphate, confirmed in two experimental repeats",practically completely suppressed the SPX1 biomarker
same,GUS (SPX1) stained area normalized to the number of seeds,"[1]; low phosphate, 50 μM, 7 days after germination, compare with low phosphate controls of same plate (Table 5 c3)",26 pixels
same,Plant height,"[2]; DKC2931, day 15, control 288",297 mm
same,Estimated volume,"[2]; DKC2931, day 15, control 361",393 cm^3
same,Plant height,"[2]; DKC2931, day 19, control 352",368 mm
same,Estimated volume,"[2]; DKC2931, day 19, control 576",763 cm^3
same,Plant height,"[2]; DKC2931, day 22, control 335",372 mm
same,Estimated volume,"[2]; DKC2931, day 22, control 843",1104 cm^3
same,Plant height,"[2]; DKC2931, day 26, control 378",452 mm
same,Estimated volume,"[2]; DKC2931, day 26, control 1145",1646 cm^3
same,Plant height,"[2]; DKC2931, day 27, control 352",460 mm
same,Estimated volume,"[2]; DKC2931, day 27, control 1086",1826 cm^3
same,Plant height,"[2]; DKC2931, day 29, control 399",471 mm
same,Estimated volume,"[2]; DKC2931, day 29, control 1581",2187 cm^3
same,Plant height,"[2]; DKC2931, day 33, control 424",553 mm
same,Estimated volume,"[2]; DKC2931, day 33, control 2272",3213 cm^3
same,Plant height,"[2]; DKC2931, day 36, control 531",634 mm
same,Estimated volume,"[2]; DKC2931, day 36, control 2854",3881 cm^3
same,Plant height,"[2]; DKC2931, day 40, control 578",694 mm
same,Estimated volume,"[2]; DKC2931, day 40, control 3872",5092 cm^3
same,Plant height,"[2]; DKC2931, day 43, control 655",756 mm
same,Estimated volume,"[2]; DKC2931, day 43, control 4240",5538 cm^3
same,Plant height,"[2]; DKC2931, day 47, control 732",799 mm
same,Estimated volume,"[2]; DKC2931, day 47, control 4988",6770 cm^3
same,Plant height,"[2]; DKC2931, day 50, control 777",844 mm
same,Estimated volume,"[2]; DKC2931, day 50, control 5718",7419 cm^3
same,Plant height,"[2]; DKC2931, day 54, control 562",652 mm
same,Estimated volume,"[2]; DKC2931, day 54, control 6325",8086 cm^3
same,Plant height,"[2]; DKC2931, day 57, control 678",894 mm
same,Estimated volume,"[2]; DKC2931, day 57, control 6295",7681 cm^3
same,Plant height,"[2]; DKC2931, day 61, control 893",1021 mm
same,Estimated volume,"[2]; DKC2931, day 61, control 6047",7458 cm^3
same,Plant height,"[2]; DKC2931, day 63, control 811",880 mm
same,Estimated volume,"[2]; DKC2931, day 63, control 5546",6642 cm^3
same,Plant height,"[2]; DKC2931, day 68, control 849",895 mm
same,Estimated volume,"[2]; DKC2931, day 68, control 4292",4967 cm^3
same,Plant height,"[2]; DKC2931, day 71, control 856",916 mm
same,Estimated volume,"[2]; DKC2931, day 71, control 4022",4807 cm^3
same,Plant height,"[2]; DKC2931, day 75, control 798",903 mm
same,Estimated volume,"[2]; DKC2931, day 75, control 3778",4587 cm^3
same,Average number of ears,"[2]; Maize pot long term DKC2931, 2.5 months, low phosphate, control 1",1
same,Shoot weight,"[2]; Maize pot long term DKC2931, low phosphate, control 27",33 g
same,Leaf 6,"[2]; Maize pot long term DKC2931, low phosphate, control 53",58 cm
